Key:
Alternaria solani = test: Alternaria test (tomato)/protective; format: in vivo; details: protective, 750 g/ha, evaluation 7 days after inoculation
Description: To produce an appropriate preparation of active compound, 1 part by weight of active compound is mixed with the stated amounts of solvent and emulsifier, and the concentrate is diluted with water to the desired concentration.
To test for protective activity, young tomato plants are sprayed with the active compound preparation at the application rate indicated. One day after treatment, the plants are inoculated with a spore suspension of Alternaria solani and then stand at 100% relative humidity and 20° C. for 24 h. The plants subsequently stand at 96% relative humidity and a temperature of 20° C.
Evaluation is made 7 days after inoculation. 0% denotes an efficacy corresponding to that of the control while an efficacy of 100% means that no infestation is observed.

[1] = logP determination by HPLC (EEC directive 79/831 Annex V. A8); format: physicochemical; details: for logP*: HPLC gradient method, acetonitrile/0.1% aqueous phosphoric acid, Table 1
Description: *) The logP values were determined in accordance with EEC directive 79/831 Annex V. A8 by HPLC (gradient method, acetonitrile/0.1% aqueous phosphoric acid)

Row | logP* [1] | Structure (SMILES) | other results
1 | 2.19 | CN(O)c1c(-c2c(F)cccc2F)c(Cl)nc2ncnn12 [Example 124] | 
2 | 3.73 | Fc1cc(F)c(-c2c(Cl)nc3ncnn3c2NOCc2cc(Cl)cc(Cl)c2)c(F)c1 [Example 80] | 
3 | 1.68 | OCCNNc1c(-c2c(F)cc(F)cc2F)c(Cl)nc2ncnn12 [Example 33] | 
4 | 3.07 | CC(=NNc1c(-c2c(F)cc(F)cc2F)c(Cl)nc2ncnn12)C(F)(F)F [Example 165] | 
5 | 3.15 | CC(C)CN(N)c1c(-c2ccc(F)cc2Cl)c(Cl)nc2ncnn12 [Example 172] | 
6 | 3.78 | CON(CC(C)C)c1c(-c2c(F)cc(F)cc2F)c(Cl)nc2ncnn12 [Example 152] | 
7 | 2.96 | CCCCN(N)c1c(-c2c(F)cc(F)cc2F)c(Cl)nc2ncnn12 [Example 132] | 
8 | 2.93 | CCC(C)N(N)c1c(-c2c(F)cc(F)cc2F)c(Cl)nc2ncnn12 (stereo not drawn) [Example 139] | 
9 | 2.72 | CC(C)CN(N)c1c(-c2c(F)cccc2F)c(Cl)nc2ncnn12 [Example 170] | 
10 | 1.99 | CN(O)c1c(-c2c(F)cc(F)cc2F)c(Cl)nc2ncnn12 [Example 123] | 
11 | 2.25 | CC(=O)NN(CC(C)C)c1c(-c2c(F)cc(F)cc2F)c(Cl)nc2ncnn12 [Example 157] | 
12 | 2.63 | CON(C)c1c(-c2c(F)cc(F)cc2F)c(Cl)nc2ncnn12 [Example 16] | 
13 | 2.92 | Fc1cc(F)c(-c2c(Cl)nc3ncnn3c2NOCc2ccccc2)c(F)c1 [Example 12] | 
14 | 2.26 | COCCN(N)c1c(-c2c(F)cc(F)cc2F)c(Cl)nc2ncnn12 [Example 128] | 
15 | 4.5 | CC(C)=NN(CC1CCCCC1)c1c(-c2c(F)cc(F)cc2F)c(Cl)nc2ncnn12 [Example 26] | 
16 | 2.98 | Fc1cc(F)c(-c2c(Cl)nc3ncnn3c2NNC2CCCC2)c(F)c1 [Example 55] | 
17 | 2.86 | CCC(C)ONc1c(-c2c(F)cc(F)cc2F)c(Cl)nc2ncnn12 (stereo not drawn) [Example 41] | 
18 | 3.32 | Fc1cc(F)c(-c2c(Cl)nc3ncnn3c2NOCc2c(Cl)cccc2Cl)c(F)c1 [Example 86] | 
19 | 2.33 | CNN(C)c1c(-c2c(F)cc(F)cc2F)c(Cl)nc2ncnn12 [Example 18] | 
20 | 3.54 | Fc1cc(F)c(-c2c(Cl)nc3ncnn3c2NOCc2ccc(OC(F)(F)F)cc2)c(F)c1 [Example 11] | 

Row | logP* [1] | Structure (SMILES) | other results
21 | 2.94 | Fc1cc(F)c(-c2c(Cl)nc3ncnn3c2NOC2CCCC2)c(F)c1 [Example 14] | 
22 | 2.58 | Fc1cc(F)c(-c2c(Cl)nc3ncnn3c2NNCC(F)(F)C(F)F)c(F)c1 [Example 29] | 
23 | 2.75 | CC(C)(C)ONc1c(-c2c(F)cc(F)cc2F)c(Cl)nc2ncnn12 [Example 43] | 
24 | 2.22 | C#CCN(N)c1c(-c2c(F)cc(F)cc2F)c(Cl)nc2ncnn12 [Example 142] | 
25 | 3.06 | CON(C)c1c(-c2c(F)c(F)c(F)c(F)c2F)c(Cl)nc2ncnn12 [Example 77] | 
26 | 2.03 | N#CCCNNc1c(-c2c(F)cc(F)cc2F)c(Cl)nc2ncnn12 [Example 23] | 
27 | 3.11 | NN(CC1CC1(Cl)Cl)c1c(-c2c(F)cc(F)cc2F)c(Cl)nc2ncnn12 (stereo not drawn) [Example 166] | 
28 | 2.58 | CCCN(N)c1c(-c2c(F)cc(F)cc2F)c(Cl)nc2ncnn12 [Example 20] | 
29 | 3.66 | NN(c1c(-c2c(F)cc(F)cc2F)c(Cl)nc2ncnn12)C1CCCCCC1 [Example 141] | 
30 | 2.43 | CON(C)c1c(-c2c(F)cccc2F)c(Cl)nc2ncnn12 [Example 28] | 
31 | 2.43 | Fc1cc(F)c(-c2c(Cl)nc3ncnn3c2NOCOc2ccc(Cl)nc2)c(F)c1 [Example 15] | 
32 | 2.94 | CC(C)CN(N)c1c(-c2c(F)cccc2Cl)c(Cl)nc2ncnn12 [Example 138] | 
33 | 3.68 | CC1(NNc2c(-c3c(F)cc(F)cc3F)c(Cl)nc3ncnn23)CCCCC1 [Example 27] | 
34 | 3.38 | Fc1cc(F)c(-c2c(Cl)nc3ncnn3c2NOCc2ccc(C(F)(F)F)cc2)c(F)c1 [Example 10] | 
35 | 3.25 | CC(C)CCNNc1c(-c2c(F)cc(F)cc2F)c(Cl)nc2ncnn12 [Example 78] | 
36 | 3.63 | CC(C)=NN(CC(C)C)c1c(-c2c(F)cc(F)cc2F)c(Cl)nc2ncnn12 [Example 158] | 
37 | 3.17 | CC(C)CN(N)c1c(-c2c(Cl)cccc2Cl)c(Cl)nc2ncnn12 [Example 155] | 
38 | 2.88 | CC(C)CN(N)c1c(-c2c(F)cc(F)cc2F)c(Cl)nc2ncnn12.Cl [Example 153] | 
39 | 3.33 | NN(c1c(-c2c(F)cc(F)cc2F)c(Cl)nc2ncnn12)C1CCCCC1 [Example 125] | 
40 | 2.99 | Fc1ccc(CONc2c(-c3c(F)cc(F)cc3F)c(Cl)nc3ncnn23)cc1 [Example 83] | 

The next lines start with the compound.

Row | Structure (SMILES) | logP* [1] | other results
41 | CCN(N)c1c(-c2c(F)cc(F)cc2F)c(Cl)nc2ncnn12 [drawing 48] |  | Efficacy in % (Alternaria solani): 89%
42 | C=CCNNc1c(-c2c(F)cc(F)cc2F)c(Cl)nc2ncnn12 [drawing 49] |  | Efficacy in % (Alternaria solani): 94%
43 | Fc1ccccc1-c1c(Cl)nc2ncnn2c1NOCc1c(Cl)cccc1Cl [Example 101] | 3.3 | 
44 | Fc1cccc(F)c1-c1c(Cl)nc2ncnn2c1NOCc1cccc(C(F)(F)F)c1 [Example 108] | 3.3 | 
45 | Fc1ccc(CONc2c(-c3c(F)c(F)c(F)c(F)c3F)c(Cl)nc3ncnn23)cc1 [Example 72] | 3.3 | 
46 | C[C@H](N(SC(F)(Cl)Cl)c1c(-c2c(F)cc(F)cc2F)c(Cl)nc2ncnn12)C(F)(F)F [Example 3, 5-chloro-7-{{[dichloro(fluoro)methyl]sulphanyl}[(1S)-2,2,2-trifluoro-1-methylethyl]amino}-6-(2,4,6-trifluorophenyl)[1,2,4]triazolo[1,5-a]pyrimidine] |  | chromatographic logP ([1]; HPLC, preparation examples, read-out: HPLC: logP): 4.74
47 | C=CCONc1c(-c2c(F)c(F)c(F)c(F)c2F)c(Cl)nc2ncnn12 [Example 74] | 2.89 | 
48 | CNN(C)c1c(-c2ccccc2F)c(Cl)nc2ncnn12 [Example 88] | 2.13 | 
49 | NN(CC1CC1(Cl)Cl)c1c(-c2c(F)cccc2Cl)c(Cl)nc2ncnn12 (stereo not drawn) [Example 171] | 3.11 | 
50 | COC(=O)N(C)Nc1c(-c2ccccc2F)c(Cl)nc2ncnn12 [Example 93] | 1.8 | 
51 | Fc1cccc(F)c1-c1c(Cl)nc2ncnn2c1NOCc1cccc(Cl)c1 [Example 46] | 3.12 | 
52 | CCC(C)NNc1c(-c2cccc(C(F)(F)F)c2Cl)c(Cl)nc2ncnn12 (stereo not drawn) [Example 145] | 3.37 | 
53 | Fc1c(F)c(F)c(-c2c(Cl)nc3ncnn3c2NOCc2c(Cl)cccc2Cl)c(F)c1F [Example 120] | 3.65 | 
54 | CC(C)CONc1c(-c2ccccc2F)c(Cl)nc2ncnn12 [Example 56] | 2.79 | 
55 | Fc1ccccc1-c1c(Cl)nc2ncnn2c1NOC1CCCCO1 (stereo not drawn) [Example 66] | 2.46 | 
56 | CC(C)N(N)c1c(-c2ccc(C(F)(F)F)cc2F)c(Cl)nc2ncnn12 [Example 134] | 3.08 | 
57 | NN(CC1CCCCC1)c1c(-c2c(F)cc(F)cc2F)c(Cl)nc2ncnn12 [drawing 50] |  | Efficacy in % (Alternaria solani): 94%
58 | CCC(C)NNc1c(-c2cc(C(F)(F)F)ccc2Cl)c(Cl)nc2ncnn12 (stereo not drawn) [Example 149] | 3.47 | 
59 | Fc1c(F)c(F)c(-c2c(Cl)nc3ncnn3c2NOCc2cccc(Cl)c2)c(F)c1F [Example 117] | 3.64 | 

Row | Structure (SMILES) | logP* [1] | other results
60 | Fc1c(F)c(F)c(-c2c(Cl)nc3ncnn3c2NOC2CCCCO2)c(F)c1F (stereo not drawn) [Example 76] | 3.04 | 
61 | Fc1c(F)c(F)c(-c2c(Cl)nc3ncnn3c2NOCc2ccc(C(F)(F)F)cc2)c(F)c1F [Example 115] | 3.77 | 
62 | Clc1cccc(Cl)c1-c1c(Cl)nc2ncnn2c1NNC1CCCC1 [Example 160] | 3.21 | 
63 | CCC(C)N(N)c1c(-c2cccc3c2OC(F)(F)O3)c(Cl)nc2ncnn12 (stereo not drawn) [Example 150] | 3.27 | 
64 | CCC(C)N(N)c1c(-c2cccc(C(F)(F)F)c2Cl)c(Cl)nc2ncnn12 (stereo not drawn) [Example 144] | 3.44 | 
65 | Fc1c(F)c(F)c(-c2c(Cl)nc3ncnn3c2NOCc2cc(Cl)cc(Cl)c2)c(F)c1F [Example 113] | 4.07 | 
66 | CC(C)CN(N)c1c(-c2cccc(C(F)(F)F)c2Cl)c(Cl)nc2ncnn12 [Example 163] | 3.45 | 
67 | NN(CC1CC1)c1c(-c2c(F)cccc2Cl)c(Cl)nc2ncnn12 [Example 162] | 2.63 | 
68 | CONc1c(-c2c(F)c(F)c(F)c(F)c2F)c(Cl)nc2ncnn12 [Example 121] | 2.53 | 
69 | CCC(C)NNc1c(-c2cc(C(F)(F)F)ccc2Cl)c(Cl)nc2ncnn12 (stereo not drawn) [Example 147] | 3.95 | 
70 | Fc1ccccc1-c1c(Cl)nc2ncnn2c1NOCc1ccccc1 [Example 95] | 2.83 | 
71 | Fc1cccc(F)c1-c1c(Cl)nc2ncnn2c1NOC1CCCCO1 (stereo not drawn) [Example 51] | 2.43 | 
72 | CC(C)CNNc1c(-c2c(Cl)c(F)cc(C(F)(F)F)c2Cl)c(Cl)nc2ncnn12 [Example 44] | 3.89 | 
73 | CCC(C)N(N)c1c(-c2cc(C(F)(F)F)ccc2Cl)c(Cl)nc2ncnn12 (stereo not drawn) [Example 148] | 3.53 | 
74 | CC(C)(C)NNc1c(-c2c(F)cc(F)cc2F)c(Cl)nc2ncnn12 [drawing 51] |  | Efficacy in % (Alternaria solani): 94%
75 | CCCN(N)c1c(-c2c(F)cc(F)cc2F)c(Cl)nc2ncnn12 [drawing 47] |  | Efficacy in % (Alternaria solani): 94%
76 | CCONc1c(-c2c(F)c(F)c(F)c(F)c2F)c(Cl)nc2ncnn12 [Example 70] | 2.73 | 
77 | C=C(C)CN(OC)C(=O)OCC [Example 179] |  | logP ([1]; Table 2, carbamates of formula (VIII)): 2.06
78 | Fc1ccccc1-c1c(Cl)nc2ncnn2c1NOCc1ccc(Cl)cc1Cl [Example 97] | 3.6 | 

Reference: patent US7189680B2, “5-halo-6-aryl[1,2,4]triazolo[1,5-a]pyrimidin-7-amines” (Bayer Cropscience AG, priority 2001, dated 2007)
